pKi: −log10 of the molar value. Counter-ions that a name gives are not always drawn.
Molecular target: T1, human GlyT1c transporter (Homo sapiens, UniProt P48067)
T1 construct: expressed in transfected cells; host or cells: CHO cells (recombinant; membranes)
T1 sequence (P48067 1-706): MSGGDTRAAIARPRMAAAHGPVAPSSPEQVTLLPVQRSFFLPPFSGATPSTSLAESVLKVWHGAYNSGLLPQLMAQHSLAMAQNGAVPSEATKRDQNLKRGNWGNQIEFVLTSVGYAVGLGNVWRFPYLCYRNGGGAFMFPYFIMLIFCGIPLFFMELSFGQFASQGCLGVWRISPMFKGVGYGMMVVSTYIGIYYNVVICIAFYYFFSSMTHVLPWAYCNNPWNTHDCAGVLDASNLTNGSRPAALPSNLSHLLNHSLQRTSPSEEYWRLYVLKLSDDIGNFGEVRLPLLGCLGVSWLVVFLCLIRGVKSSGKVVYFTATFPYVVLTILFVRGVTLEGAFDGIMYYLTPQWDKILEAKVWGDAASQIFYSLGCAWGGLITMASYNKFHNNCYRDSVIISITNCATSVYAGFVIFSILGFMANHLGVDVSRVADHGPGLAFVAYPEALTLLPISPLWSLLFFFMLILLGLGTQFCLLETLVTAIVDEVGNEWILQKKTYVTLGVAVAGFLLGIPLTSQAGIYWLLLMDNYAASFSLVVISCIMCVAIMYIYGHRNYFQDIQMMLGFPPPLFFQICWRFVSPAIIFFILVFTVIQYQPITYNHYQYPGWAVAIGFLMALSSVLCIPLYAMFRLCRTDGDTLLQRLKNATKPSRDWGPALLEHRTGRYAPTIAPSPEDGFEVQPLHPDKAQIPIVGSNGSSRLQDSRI
Experiment: Radioligand binding assay using recombinant CHO cell membranes expressing human GlyT1
Conditions: values given as upper bounds, read-out: radioligand binding Kiapp
Experimental: 2. Radioligand Binding Assays Using Recombinant CHO Cell Membranes Expressing Human GlyT1:
Radioligand binding to human GlyT1c transporter-expressing membranes was determined as described in Mezler et al., Molecular Pharmacology 74:1705-1715, 2008.

Structure (SMILES) | pKi
CN[C@@H]1COc2ccc(OCCNS(=O)(=O)c3cnn(C)c3)cc2[C@@H]1Cc1ccccc1 (relative stereo) [Example 1a, cis-N-(2-{[4-Benzyl-3-(methylamino)-3,4-dihydro-2H-chromen-6-yl]oxy}ethyl)-1-methyl-1H-pyrazole-4-sulfonamide hydrochloride] | ≥ 8.00
CN[C@@H]1COc2ccc(OCCNS(=O)(=O)c3cnn(C)c3)cc2[C@H]1Cc1ccccc1 (relative stereo) [Example 1b, trans-N-(2-{[-4-benzyl-3-(methylamino)-3,4-dihydro-2H-chromen-6-yl]oxy}ethyl)-1-methyl-1H-pyrazole-4-sulfonamide hydrochloride] | ≥ 8.00
CN[C@@H]1COc2ccc(OCCNS(=O)(=O)c3cn(C)cn3)cc2[C@@H]1Cc1ccccc1 (relative stereo) [Example 2a, cis-N-(2-{[-4-Benzyl-3-(methylamino)-3,4-dihydro-2H-chromen-6-yl]oxy}ethyl)-1-methyl-1H-imidazole-4-sulfonamide] | ≥ 8.00
CN[C@@H]1COc2ccc(OCCNS(=O)(=O)c3cn(C)cn3)cc2[C@H]1Cc1ccccc1 (relative stereo) [Example 2b, trans-N-(2-{[-4-benzyl-3-(methylamino)-3,4-dihydro-2H-chromen-6-yl]oxy}ethyl)-1-methyl-1H-imidazole-4-sulfonamide] | ≥ 8.00
CCCS(=O)(=O)NCCOc1ccc2c(c1)[C@H](Cc1ccccc1)[C@H](NC)CO2 (relative stereo) [Example 3a, cis-N-(2-{[-4-Benzyl-3-(methylamino)-3,4-dihydro-2H-chromen-6-yl]oxy}ethyl)propane-1-sulfonamide] | ≥ 7.00
CCCS(=O)(=O)NCCOc1ccc2c(c1)[C@@H](Cc1ccccc1)[C@H](NC)CO2 (relative stereo) [Example 3b, trans-N-(2-{[-4-benzyl-3-(methylamino)-3,4-dihydro-2H-chromen-6-yl]oxy}ethyl)propane-1-sulfonamide] | ≥ 6.00
CN[C@@H]1COc2ccc(OCCNS(=O)(=O)CC3CC3)cc2[C@@H]1Cc1ccccc1 (relative stereo) [Example 4a, cis-N-(2-{[-4-Benzyl-3-(methylamino)-3,4-dihydro-2H-chromen-6-yl]oxy}ethyl)-1-cyclopropylmethanesulfonamide] | ≥ 8.00
CN[C@@H]1COc2ccc(OCCNS(=O)(=O)CC3CC3)cc2[C@H]1Cc1ccccc1 (relative stereo) [Example 4b, trans-N-(2-{[-4-benzyl-3-(methylamino)-3,4-dihydro-2H-chromen-6-yl]oxy}ethyl)-1-cyclopropylmethanesulfonamide] | ≥ 7.00
CN[C@@H]1COc2ccc(CNS(=O)(=O)c3cn(C)cn3)cc2[C@@H]1Cc1ccccc1 (relative stereo) [Example 5a, cis-1-Methyl-1H-imidazole-4-sulfonic acid (4-benzyl-3-methylamino-chroman-6-ylmethyl)-amide] | ≥ 8.00
CN[C@@H]1COc2ccc(CNS(=O)(=O)c3cn(C)cn3)cc2[C@H]1Cc1ccccc1 (relative stereo) [Example 5b, trans-1-Methyl-1H-imidazole-4-sulfonic acid (4-benzyl-3-methylamino-chroman-6-ylmethyl)-amide] | ≥ 8.00
CN[C@@H]1COc2ccc(CNS(=O)(=O)c3cnn(C)c3)cc2[C@@H]1Cc1ccccc1 (relative stereo) [Example 6a, cis-N-{[4-benzyl-3-(methylamino)-3,4-dihydro-2H-chromen-6-yl]methyl}-1-methyl-1H-pyrazole-4-sulfonamide] | ≥ 8.00
CN[C@@H]1COc2ccc(CNS(=O)(=O)c3cnn(C)c3)cc2[C@H]1Cc1ccccc1 (relative stereo) [Example 6b, trans-N-{[-4-benzyl-3-(methylamino)-3,4-dihydro-2H-chromen-6-yl]methyl}-1-methyl-1H-pyrazole-4-sulfonamide] | ≥ 8.00
CCCS(=O)(=O)NCc1ccc2c(c1)[C@H](Cc1ccccc1)[C@H](NC)CO2 (relative stereo) [Example 7a, cis-N-{[4-Benzyl-3-(methylamino)-3,4-dihydro-2H-chromen-6-yl]methyl}propane-1-sulfonamide] | ≥ 8.00
CCCS(=O)(=O)NCc1ccc2c(c1)[C@@H](Cc1ccccc1)[C@H](NC)CO2 (relative stereo) [Example 7b, trans-N-{[4-benzyl-3-(methylamino)-3,4-dihydro-2H-chromen-6-yl]methyl}propane-1-sulfonamide] | ≥ 7.00
CN[C@@H]1COc2ccc(CNS(=O)(=O)CC3CC3)cc2[C@@H]1Cc1ccccc1 (relative stereo) [Example 8a, cis-N-{[4-Benzyl-3-(methylamino)-3,4-dihydro-2H-chromen-6-yl]methyl}-1-cyclopropylmethanesulfonamide] | ≥ 8.00
CN[C@@H]1COc2ccc(CNS(=O)(=O)CC3CC3)cc2[C@H]1Cc1ccccc1 (relative stereo) [Example 8b, trans-N-{[4-benzyl-3-(methylamino)-3,4-dihydro-2H-chromen-6-yl]methyl}-1-cyclopropylmethanesulfonamide] | ≥ 7.00
CCS(=O)(=O)NCc1ccc2c(c1)[C@H](Cc1ccccc1)[C@H](NC)CO2 (relative stereo) [Example 9a, cis-N-{[4-Benzyl-3-(methylamino)-3,4-dihydro-2H-chromen-6-yl]methyl}ethanesulfonamide] | ≥ 7.00
CCS(=O)(=O)NCc1ccc2c(c1)[C@@H](Cc1ccccc1)[C@H](NC)CO2 (relative stereo) [Example 9b, trans-N-{[4-benzyl-3-(methylamino)-3,4-dihydro-2H-chromen-6-yl]methyl}ethanesulfonamide] | ≥ 6.00
Cn1cnc(S(=O)(=O)NCCOc2ccc3c(c2)[C@H](Cc2ccccc2)[C@H](N2CCC2)CO3)c1 (relative stereo) [Example 10, cis-1-Methyl-1H-imidazole-4-sulfonic acid [2-(3-azetidin-1-yl-4-benzyl-chroman-6-yloxy)-ethyl]-amide] | ≥ 8.00
O=S(=O)(CC1CC1)NCCOc1ccc2c(c1)[C@H](Cc1ccccc1)[C@H](N1CCC1)CO2 (relative stereo) [Example 11, cis-N-[2-(3-Azetidin-1-yl-4-benzyl-chroman-6-yloxy)-ethyl]-C-cyclopropyl-methanesulfonamide] | ≥ 6.00
Cn1cnc(S(=O)(=O)NCc2ccc3c(c2)[C@H](Cc2ccccc2)[C@H](N)CO3)c1 (relative stereo) [Example 12, cis-1-Methyl-1H-imidazole 4-sulfonic acid (3-amino-4-benzyl-chroman-6-ylmethyl)-amide] | ≥ 8.00
Cn1cnc(S(=O)(=O)NCc2ccc3c(c2)[C@@H](Cc2ccccc2)[C@H](N)CO3)c1 (relative stereo) [Example 13, trans-1-Methyl-1H-imidazole-4-sulfonic acid (3-amino-4-benzyl-chroman-6-ylmethyl)-amide] | ≥ 8.00
CCCS(=O)(=O)NCCOc1ccc2c(c1)[C@H](Cc1ccccc1)[C@H](N1CCC1)CO2 (relative stereo) [Example 14, cis-Propane-1-sulfonic acid [2-(3-azetidin-1-yl-4-benzyl-chroman-6-yloxy)-ethyl]-amide; trifluoro-acetic acid salt] | ≥ 7.00

Source: patent US8853196B2, “Aminochromane, aminothiochromane and amino-1,2,3,4-tetrahydroquinoline derivatives, pharmaceutical compositions containing them, and their use in therapy” (AbbVie Deutschland GmbH & Co. KG, priority 2011, dated 2014)
